Data published in PubChem BioAssay (NCI).
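Interpolation was linear, between the two tested concentrations surrounding the appropriate level; five concentrations were tested over 48 hours in 96-well plates. Abbreviation: GI50, concentration required for 50% inhibition of growth. The concentration for full growth arrest is given as TGI.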

What was measured:
Experiment in all cases: NCI-60 cell line screen, 48 h
U251 CNS = system: U251 CNS
SW-620 colon = system: SW-620 colon
CAKI-1 renal = system: CAKI-1 renal
K-562 leukemia = system: K-562 leukemia
NCI/ADR-RES ovarian = system: NCI/ADR-RES ovarian
SF-295 CNS = system: SF-295 CNS
RXF 393 renal = system: RXF 393 renal
M14 melanoma = system: M14 melanoma
MOLT-4 leukemia = system: MOLT-4 leukemia
HL-60(TB) leukemia = system: HL-60(TB) leukemia

| Compound | GI50 (U251 CNS) [µM] | TGI (U251 CNS) [µM] | GI50 (SW-620 colon) [µM] | TGI (SW-620 colon) [µM] | GI50 (CAKI-1 renal) [µM] | TGI (CAKI-1 renal) [µM] | GI50 (K-562 leukemia) [µM] | TGI (K-562 leukemia) [µM] | GI50 (NCI/ADR-RES ovarian) [µM] | TGI (NCI/ADR-RES ovarian) [µM] | GI50 (SF-295 CNS) [µM] | TGI (SF-295 CNS) [µM] | GI50 (RXF 393 renal) [µM] | TGI (RXF 393 renal) [µM] | GI50 (M14 melanoma) [µM] | TGI (M14 melanoma) [µM] | GI50 (MOLT-4 leukemia) [µM] | TGI (MOLT-4 leukemia) [µM] | TGI (HL-60(TB) leukemia) [µM] |
| --- | --- | --- | --- | --- | --- | --- | --- | --- | --- | --- | --- | --- | --- | --- | --- | --- | --- | --- | --- |
| C[C@]12CCC3[C@@H](C[C@@H]4SC(Nc5ccccc5)=N[C@@]45CC(=O)CC[C@]35C)[C@@H]1CCC2=O (stereo not given in full) | 4.41 | 19.3 | 3.38 | 15.6 | 13 | 30.2 | 2.79 | > 100 | 6.34 | > 100 | 8.98 | > 100 | 3.18 | 14.2 | 7.88 | 50.9 | 2.84 | > 100 | – |
| O=C1C(Cl)C(c2cccc(O)c2)N1n1cnc2ccccc2c1=O (stereo not given) | – | > 100 | – | > 100 | – | > 100 | – | > 100 | – | – | – | > 100 | – | > 100 | – | > 100 | – | > 100 | > 100 |
| O=Cc1c(-c2cc(O)ccc2O)nc2sccn12 | 18.8 | 47 | 25.3 | > 100 | 0.958 | 4.09 | – | – | 16 | 48.5 | 25 | 74.6 | 7.83 | 26.6 | 13.8 | 30.1 | 2.52 | 11.5 | – |
| CCN1C2=NC(=O)N(C)C(=O)C2(Cl)C(C(SC)S(=O)(=O)c2ccc(C)cc2)c2ccccc21 (stereo not given) | – | > 100 | – | > 100 | – | > 100 | – | 55.1 | – | – | – | > 100 | – | – | – | 52.5 | – | 13.3 | 19.7 |
| CC(C)N(C(=O)C12C3C4C5(C#N)C3C1(I)C5C42I)C(C)C (stereo not given) | – | > 100 | – | > 53.1 | – | > 100 | – | > 93.3 | – | – | – | > 100 | – | > 100 | – | > 100 | – | > 100 | > 63.6 |
| O=C(O)c1ccc2c(c1)Cc1cc([N+](=O)[O-])ccc1-2 | – | > 100 | – | > 100 | – | > 100 | – | > 100 | – | > 100 | – | > 100 | – | – | – | > 100 | – | > 100 | > 100 |
| O=C1C=C[C@@]23CC1C(O)C[C@H]2C=Cc1ccccc13 (stereo not given in full) | – | – | – | > 100 | – | > 100 | – | > 100 | – | – | – | > 100 | – | – | – | > 100 | – | > 100 | > 100 |
| CCOc1ccc(N=Cc2cccc3cccnc23)cc1 | – | > 100 | – | > 100 | – | > 100 | – | 82.3 | – | – | – | > 100 | – | > 100 | – | > 100 | – | > 100 | 62.2 |
| CCOP(=O)(OCC)C(NC(c1ccccc1)c1ccccc1)c1ccccc1 (stereo not given) | 14.5 | 28.5 | 15 | 31.7 | 10.4 | 22.2 | 7.4 | 22.2 | 11 | 24.8 | 2.05 | 14.8 | – | – | 15.3 | 28.6 | 0.0995 | 3.47 | – |
| Cc1ccc(NC(=O)CC2C(=O)Nc3ccccc3S2=O)cc1C (stereo not given) | – | > 100 | – | > 100 | – | > 100 | – | > 100 | – | – | – | > 100 | – | 41.8 | – | > 100 | – | > 100 | > 100 |
| O=c1n(C2CCCCC2)c(=C(Cl)Cl)c(=C(Cl)Cl)n1C1CCCCC1 | – | > 100 | – | > 100 | – | – | – | > 100 | – | – | – | > 100 | – | > 100 | – | – | – | > 100 | > 100 |
| O=C1C(Cl)=C(Cl)C(=O)N1C1C2CC3CC(C2)CC1C3 (stereo not given) | – | > 100 | – | > 100 | – | > 66.9 | – | > 92.2 | – | – | – | > 100 | – | > 100 | – | > 100 | – | > 83.3 | 79.4 |
| CC(O)/C=C/C(CCC(C)CO)C(C)C (stereo not given) | – | > 100 | – | > 100 | – | > 100 | – | > 100 | – | – | – | > 100 | – | > 100 | – | > 100 | – | > 100 | > 100 |
| OCCCCC#Cc1ccccc1C#Cc1ccccc1 | 11.5 | 23.8 | 15.7 | 34.4 | 14.7 | 29.1 | 22.1 | > 100 | 17 | 47.3 | 7.65 | 22.6 | – | – | 10.1 | 22.9 | 17.8 | 63.8 | – |
| O=S(=O)([O-])c1cccc2cccc(N=Cc3ccccc3[O-])c12.O=S(=O)([O-])c1cccc2cccc(N=Cc3ccccc3[O-])c12.[O]=[U]=[O] | 30.8 | > 100 | 42.1 | > 100 | – | – | 35.5 | > 100 | – | – | 67.5 | > 100 | 10.7 | 25.1 | 43 | > 100 | 29 | > 100 | – |
| Cc1cccc(-c2nc3c(C(=O)NCCN(C)C)cccc3[nH]2)c1 | – | 5.77 | – | 1.91 | – | 10.3 | – | > 100 | – | – | – | 3.9 | – | 2.47 | – | 2.98 | – | – | – |
| [Cl][Bi]([O]c1ccccn1)[O]c1ccccn1 | > 100 | > 100 | > 100 | > 100 | > 100 | > 100 | – | – | – | – | > 100 | > 100 | > 100 | > 100 | > 100 | > 100 | – | – | – |
| CSc1nc(NC2OCC(OC(C)=O)C(OC(C)=O)C2OC(C)=O)c2c(OC(C)=O)c(C)c(=O)oc2n1 (stereo not given) | – | > 100 | – | > 100 | – | > 100 | – | > 100 | – | – | – | > 100 | – | > 100 | – | > 100 | – | > 100 | > 100 |
| COC(=O)C1=C(C)N(NC(N)=O)C2(N)N(NC(N)=O)C(C)=C(C(=O)OC)C12C(=O)OC (stereo not given) | – | > 100 | – | > 100 | – | > 100 | – | > 100 | – | – | – | > 10 | – | – | – | > 100 | – | > 100 | > 100 |
| Cc1c(/C=N/NS(=O)(=O)c2ccccc2)no[n+]1[O-] | – | > 100 | – | > 100 | – | > 100 | – | > 100 | – | – | – | > 100 | – | > 100 | – | > 100 | – | > 100 | > 100 |
